{"source": "patent US10822301B2", "about": "“3-carbon substituted 4-aminocyclopent-1-ene-1-carboxylic acid compounds as inhibitors of gamma-aminobutyric acid (GABA) aminotransferase” (Northwestern University, priority 2018, dated 2020)", "origin": "cited, not measured here", "key": {"[1]": {"test_system": "epilepsy patients", "conditions": "long-term administration, share of epilepsy patients"}, "[2]": {"test_system": "cocaine addiction in humans", "conditions": "9-week double-blind trial"}}}
{"compound": "C=CC(N)CCC(=O)O", "note": "(centres unmarked) [vigabatrin]", "values": [{"measurement": "permanent vision loss (damage of the retinal nerve fiber layer)", "setting": "[1]", "value": "25-40%"}, {"measurement": "patients achieving abstinence", "setting": "[2]", "value": "up to 28%"}]}
